In patent publication US20090215710A1, “CARBOHYDRATE BASED TOLL-LIKE RECEPTOR (TLR) ANTAGONISTS” (RELIANCE LIFE SCIENCES PVT. LTD., priority 2007, published 2009):

Assays:
[1] = Cell viability in pre-screen (Table 1); assay type: cell-based
TNF-α = assay: TNF response to increasing concentration of LPS in THP-1 cells; assay type: cell-based, human; details: LPS 1000 ng/ml
Method: The present invention has also conducted experiments to check the ability of RSCL-0409 to inhibit LPS induced TNF-α secretion from THP-1 cells, wherein the studies involved the stimulation of THP-1 cells with increasing concentrations of LPS (62.5 ng/ml to 1000 ng/ml) with and without pre-treatment of cells with different concentrations of RSCL-0409.

COX-2 pathway = assay: Arachadonic acid induced PGE2 release in A549 cells (EIA); assay type: cell-based, human
Text: COX-2 is the key enzyme regulating the production of prostaglandins, which act as central mediators of inflammation. […] It is well documented COX-2 pathway inhibitors were regarded as promising nonsteroidal anti-inflammatory drugs (NSAIDs). So we decided to test the ability of RSCL-0409 to block the COX-2 pathway to substantiate our earlier mRNA observation. For that purpose, we chose A549 cells, a human lung cancer cell line where COX-2 is activated by AA in serum-free stimulation established by Yao et al for 12 hr. (Yao J C, Duan W G, Yun Y, Liu de Q, Yan M, Jiang Z Z, Zhang L Y. Screening method for nonsteroidal antiinflammatory drugs based on the cyclooxygenase 2 pathway activated by serum-free stimulation in A549 cells. Yakugaku Zasshi. 2007; 127: 527-32.) In order to determine the efficiency of our molecule, we have incorporated two known COX-2 NSAIDs-Piroxicam and Ibuprofen for comparison purposes. A549 cells (50×10^4 cells/well) in serum free medium were pretreated with different concentrations (10 μM, 5 μM, 2.5 μM, and 1.25 μM) of the NSAIDs and RSCL-0409 for 30 min. Then the cells were incubated with AA ([…]) for another 30 min. Prostaglandin E2 (PGE2), a metabolite of AA through the Cox pathway, was assayed in an enzyme immunoassay (EIA) kit from R&D systems.

RAW264.7 cells = assay: LPS induced nitric oxide (NO) release in RAW 264.7 cells (Griess reaction); assay type: cell-based; details: RAW264.7, LPS 250 ng/ml
Method: RAW264.7 cells provide an excellent model for evaluations of potential inhibitors on the pathway leading the induction of iNOS and NO production. Nitric oxide production was determined in RAW264.7 cells from the National Center of Cell Science (NCCS, Pune) cultured in color-free DMEM with standard supplements by measuring the amount of nitrite from cell culture supernatant. RAW264.7 cells (5×10^4 per well) were stimulated for 24 hr with or without LPS (250 ng/ml) in the absence of presence of the RSCL-0409. Nitrite was then measured using the Griess reaction. 100 μl of cell culture supernatant was reacted with 100 μl of Griess reagent followed by spectrophotometric measurement at 550 nm. Nitrite concentrations in the supernatants were determined by comparison with a sodium nitrite standard curve. Alongside RSCL-0409 we also used known strong antioxidants (Vit C, Ascorbic acid, Catechin and Trolox) which inhibit NO to comparative antioxidant efficiency.

NF-κB = NF-κB SEAP reporter assay in THP-1 CD14 Blue cells; assay type: cell-based, human; details: LPS 250 ng/ml, 24 hr
Method: THP-1 CD14 Blue cells (Invivogen, San Diego, Calif., USA) transfected with a SEAP reporter construct in which the reporter expression was regulated by the NF-κB promoter were stimulated with LPS (250 ng/ml) with or without RSCL-0409 for 24 hr. […] The reporter activity was determined using Quanti Blue kit (Invivogen). The data (FIG. 8) is plotted as the relative change of reporter activity. NS; not significant, ** P value <0.01, *** P value <0.001 are statistics for Cells Vs RSCL-0409 treated and LPS treated vs. RSCL-0409 followed by LPS treatment respectively. These observations further confirm that the RSCL-0409 inhibits LPS induced TLR mediated activation of NF-κB transcription factor.

[2] = test system: TLR related genes (TIRAP, IRAK1, IRAK4, TRAF6, TRIF); assay: mRNA expression of TLR related genes in LPS stimulated THP-1 cells (PCR); assay type: cell-based, human; details: THP-1, LPS 250 ng/ml 1 hr
Method: Serum-starved THP-1 cells were stimulated with LPS (250 ng/ml) for 1 hr in the presence and absence of RSCL-0409. Total RNA was isolated from treated cells post LPS exposure. The cDNA was used for PCR against specific primers for the TLR related genes and β-actin was used as internal control.
To rule out the possibility of a TRIF dependent pathway, a MyD88 independent path, we have checked its expression levels also in the treated cells.

Balb/c mice = assay: LPS induced TNF-α release in Balb/c mice, treatment post LPS; assay type: in vivo; details: 30 min post LPS (225 μg i.p.)
Method: Here we have stimulated the inflammation process in mice with an injection of LPS (225 μg) intraperitoneally and 30 min post LPS, we have challenged the ability of RSCL-0409 (10 mg/kg, 20 mg/kg) to inhibit the TNF-α secretion.

Question: What does the source list for `COc1ccc(OC2OC3COC(c4ccccc4)OC3C(OC3OC(COC(=O)CCC(C)=O)C(OC(=O)CCl)C(OC(C)=O)C3OC(C)=O)C2NC(=O)C(Cl)(Cl)Cl)cc1` [RSCL-0409, p-Methoxy phenyl-O-(2,3-di-O-acetyl-4-O-chloroacetyl-6-O-levulinoyl-β-D-glucopyranosyl)-(1-3)-2-deoxy-2-trichloroacetamido-4,6-O-benzylidene-α-D-glucopyranoside]?
Answer: % Viability ([1]; 1 uM): 108%; % Viability ([1]; 10 uM): 112%; % Viability ([1]; 50 uM): 114%; % Viability ([1]; 100 uM): 113%; concentration inhibiting LPS induced TNF-α secretion (as low as) (TNF-α): 10 µM; PGE2 release (COX-2 pathway; A549 cells, 10, 5, 2.5 and 1.25 μM, AA induced): concentration dependent inhibition of PGE2 release; concentration still effective on PGE2 release (COX-2 pathway; A549 cells, AA induced): 1.25 µM; inhibition of PGE2 in comparison with the NSAIDs (COX-2 pathway; at all the concentrations used): better than Piroxicam; anti-oxidant activity versus reference antioxidants (Vit C, Ascorbic acid, Catechin and Trolox) (RAW264.7 cells): far more potent; NO secretion induced by LPS (RAW264.7 cells; 24 hr): inhibited by RSCL-0409 in a concentration dependent manner; SEAP reporter activity (NF-κB promoter) (NF-κB): blocked in a dose dependent manner; TRIF mRNA levels [2]: remained unaffected; expression level of TRAF6 [2]: not down regulated significantly; mRNA expression levels of TIRAP, IRAK1 and IRAK4 [2]: inhibits the mRNA expression levels of TIRAP, IL-1R-associated kinase1 (IRAK1) and IRAK4; inhibition of TNF secretion (Balb/c mice; 10 mg/kg): ~39%; inhibition of TNF secretion (Balb/c mice; 20 mg/kg): ~47%
